Measurements: ChEMBL document CHEMBL4387773, “Identification of potent, selective and orally bioavailable phenyl ((R)-3-phenylpyrrolidin-3-yl)sulfone analogues as RORγt inverse agonists” (Bioorg Med Chem Lett, 2019)

What was measured:
[1] = Stability in human liver microsomes assessed as parent compound remaining after 10 mins; format: ADME, Microsome; settings: liver microsomes, read-out: Stability
[2] = biological target: T1, Nuclear receptor subfamily 1 group I member 2 (Homo sapiens, UniProt O75469); assay: Transactivation of PXR (unknown origin) expressed in human HepG2 cells; format: cell-based
T1 sequence (O75469 whole entry): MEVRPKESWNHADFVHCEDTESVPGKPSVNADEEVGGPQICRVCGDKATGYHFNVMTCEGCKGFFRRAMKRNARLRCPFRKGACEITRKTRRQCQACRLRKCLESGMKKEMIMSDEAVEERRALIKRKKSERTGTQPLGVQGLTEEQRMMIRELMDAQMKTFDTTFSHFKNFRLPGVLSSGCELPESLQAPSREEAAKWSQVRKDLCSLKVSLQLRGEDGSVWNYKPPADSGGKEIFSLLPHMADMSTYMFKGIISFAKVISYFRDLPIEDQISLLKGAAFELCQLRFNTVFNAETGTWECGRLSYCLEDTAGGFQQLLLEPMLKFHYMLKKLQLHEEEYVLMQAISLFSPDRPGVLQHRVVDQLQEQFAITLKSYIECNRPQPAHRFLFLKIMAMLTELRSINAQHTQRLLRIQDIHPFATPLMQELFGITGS

PXR = biological target: T2, PXR (Homo sapiens, UniProt O75469); assay: Transactivation of PXR (unknown origin) expressed in human HepG2 cells assessed as maximum receptor activation response relative to control; format: cell-based; settings: human HepG2 cells that express PXR, read-out: %max
T2 sequence (O75469 whole entry): T1 sequence (O75469 whole entry)

[3] = Stability in mouse liver microsomes assessed as parent compound remaining after 10 mins; format: ADME, Microsome; settings: liver microsomes, read-out: Stability
[4] = biological target: T3, Nuclear receptor ROR-alpha (Homo sapiens, UniProt P35398); assay: Inverse agonist activity at human Gal4-fused RORalpha LBD (272 to 556 residues) expressed in human Jurkat cells measured after 18 hrs by steady-glo luciferase reporter gene assay; format: cell-based
T3 sequence (P35398 whole entry): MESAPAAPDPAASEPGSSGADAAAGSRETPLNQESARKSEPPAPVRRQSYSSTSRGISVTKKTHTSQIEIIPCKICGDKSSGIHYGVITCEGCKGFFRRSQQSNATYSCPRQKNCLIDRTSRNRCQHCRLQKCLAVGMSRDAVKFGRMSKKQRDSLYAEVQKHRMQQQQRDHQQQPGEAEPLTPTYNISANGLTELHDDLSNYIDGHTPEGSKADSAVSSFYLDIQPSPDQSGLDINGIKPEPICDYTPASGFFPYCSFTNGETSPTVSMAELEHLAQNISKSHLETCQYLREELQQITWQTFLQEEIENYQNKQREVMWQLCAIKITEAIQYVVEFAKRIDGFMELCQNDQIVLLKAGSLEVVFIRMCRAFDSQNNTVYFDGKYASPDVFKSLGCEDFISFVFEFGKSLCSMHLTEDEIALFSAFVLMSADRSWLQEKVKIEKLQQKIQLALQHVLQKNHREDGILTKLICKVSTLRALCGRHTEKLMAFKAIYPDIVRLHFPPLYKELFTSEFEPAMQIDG

[5] = biological target: T4, Nuclear receptor ROR-beta (Homo sapiens, UniProt Q92753); assay: Inverse agonist activity at human Gal4-fused RORbeta LBD (200 to 559 residues) expressed in human Jurkat cells measured after 18 hrs by steady-glo luciferase reporter gene assay; format: cell-based
T4 sequence (Q92753 whole entry): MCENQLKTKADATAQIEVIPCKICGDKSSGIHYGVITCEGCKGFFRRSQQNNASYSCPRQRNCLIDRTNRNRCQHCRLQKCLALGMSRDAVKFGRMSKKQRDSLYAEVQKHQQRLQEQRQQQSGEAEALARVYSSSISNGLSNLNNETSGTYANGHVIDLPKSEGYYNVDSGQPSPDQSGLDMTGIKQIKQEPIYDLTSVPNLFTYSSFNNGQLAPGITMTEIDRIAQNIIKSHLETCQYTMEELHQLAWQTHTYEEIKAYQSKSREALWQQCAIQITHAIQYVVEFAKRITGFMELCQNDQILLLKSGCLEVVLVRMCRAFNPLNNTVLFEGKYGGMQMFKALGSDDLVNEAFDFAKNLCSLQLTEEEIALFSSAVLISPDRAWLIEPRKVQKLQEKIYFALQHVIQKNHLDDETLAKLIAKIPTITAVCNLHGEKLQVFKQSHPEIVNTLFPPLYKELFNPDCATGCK

[6] = biological target: T5, Oxysterols receptor LXR-alpha (Homo sapiens, UniProt Q13133); assay: Transactivation of human GAL4-fused LXRalpha expressed in African green monkey CV1 cells; format: cell-based
T5 sequence (Q13133 whole entry): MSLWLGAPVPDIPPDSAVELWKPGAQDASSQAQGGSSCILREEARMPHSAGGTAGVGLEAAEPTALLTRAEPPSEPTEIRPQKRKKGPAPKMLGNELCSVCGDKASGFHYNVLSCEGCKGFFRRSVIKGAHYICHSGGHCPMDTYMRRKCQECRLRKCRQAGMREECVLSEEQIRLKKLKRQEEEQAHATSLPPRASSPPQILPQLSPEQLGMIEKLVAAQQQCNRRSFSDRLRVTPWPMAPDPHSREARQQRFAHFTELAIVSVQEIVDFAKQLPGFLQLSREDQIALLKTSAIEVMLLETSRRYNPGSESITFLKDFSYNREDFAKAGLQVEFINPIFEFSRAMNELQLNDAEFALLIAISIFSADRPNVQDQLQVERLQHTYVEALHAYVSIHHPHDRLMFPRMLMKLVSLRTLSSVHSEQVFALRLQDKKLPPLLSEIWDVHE

[7] = biological target: T6, Oxysterols receptor LXR-beta (Homo sapiens, UniProt P55055); assay: Transactivation of human GAL4-fused LXRbeta expressed in African green monkey CV1 cells; format: cell-based
T6 sequence (P55055 whole entry): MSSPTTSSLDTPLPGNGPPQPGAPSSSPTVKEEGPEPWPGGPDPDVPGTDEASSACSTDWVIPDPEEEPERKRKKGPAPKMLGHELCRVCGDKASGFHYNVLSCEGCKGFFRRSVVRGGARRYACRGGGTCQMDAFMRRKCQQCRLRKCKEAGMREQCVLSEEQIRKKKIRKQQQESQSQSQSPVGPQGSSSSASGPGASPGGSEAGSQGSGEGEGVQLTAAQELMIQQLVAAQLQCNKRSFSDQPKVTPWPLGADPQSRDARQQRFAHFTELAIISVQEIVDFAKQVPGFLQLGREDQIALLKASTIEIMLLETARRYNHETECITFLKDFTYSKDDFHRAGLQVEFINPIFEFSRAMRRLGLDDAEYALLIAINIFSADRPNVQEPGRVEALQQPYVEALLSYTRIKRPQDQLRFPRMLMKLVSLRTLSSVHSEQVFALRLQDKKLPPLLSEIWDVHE

remaining at 10 min [1] [%]	EC50 [2] [µM]	Emax (PXR) [%]	remaining at 10 min [3] [%]	EC50 [4] [µM]	EC50 [5] [µM]	EC50 [6] [µM]	EC50 [7] [µM]	SMILES
82	> 22	69	94	> 40	> 40	> 7.5	> 7.5	O=C([C@H]1CC[C@@](F)(C(=O)O)CC1)N1CC[C@](c2ccc(C(F)(C(F)(F)F)C(F)(F)F)cc2)(S(=O)(=O)c2ccc(F)cc2)C1
100	> 50	15	–	> 40	> 40	> 7.5	> 7.5	O=C(O)[C@H]1[C@@H]2C[C@@H](C(=O)N3CC[C@](c4ccc(C(F)(C(F)(F)F)C(F)(F)F)cc4)(S(=O)(=O)c4ccc(F)cc4)C3)C[C@@H]21
–	10.6	31	–	> 40	> 40	> 7.5	> 7.5	O=C(O)[C@H]1CC[C@](F)(C(=O)N2CC[C@](c3ccc(C(F)(C(F)(F)F)C(F)(F)F)cc3)(S(=O)(=O)c3ccc(F)cc3)C2)CC1
97	–	–	–	> 40	> 40	> 7.5	> 7.5	O=C(O)[C@H]1CC[C@H](C(=O)N2CC[C@](c3ccc(C(F)(C(F)(F)F)C(F)(F)F)cc3)(S(=O)(=O)c3ccc(F)cc3)C2)CC1
100	> 50	6	–	> 40	> 40	> 7.5	> 7.5	CC[C@]1(C(=O)O)CC[C@H](C(=O)N2CC[C@](c3ccc(C(F)(C(F)(F)F)C(F)(F)F)cc3)(S(=O)(=O)c3ccc(F)cc3)C2)CC1
–	–	–	–	> 40	> 40	> 7.5	> 7.5	COC(=O)[C@H]1CC[C@H](C(=O)N2CC[C@](c3ccc(C(F)(C(F)(F)F)C(F)(F)F)cc3)(S(=O)(=O)c3ccc(F)cc3)C2)CC1
–	–	–	–	> 40	> 40	> 7.5	> 7.5	CCC[C@]1(C(=O)N2CC[C@](c3ccc(C(F)(C(F)(F)F)C(F)(F)F)cc3)(S(=O)(=O)c3ccc(F)cc3)C2)CC[C@H](C(=O)O)CC1

Continued, compound first:

SMILES	remaining at 10 min [1] [%]	EC50 [2] [µM]	Emax (PXR) [%]	remaining at 10 min [3] [%]	EC50 [4] [µM]	EC50 [5] [µM]	EC50 [6] [µM]	EC50 [7] [µM]
O=C(O)C12CCC(C(=O)N3CC[C@](c4ccc(C(F)(C(F)(F)F)C(F)(F)F)cc4)(S(=O)(=O)c4ccc(F)cc4)C3)(CC1)OC2	90	> 50	5	94	> 40	> 40	> 7.5	> 7.5
O=C(N1CC[C@](c2ccc(C(F)(C(F)(F)F)C(F)(F)F)cc2)(S(=O)(=O)c2ccc(F)cc2)C1)C1(O)CCS(=O)(=O)CC1	100	> 50	6	90	> 40	> 40	> 7.5	> 7.5
CC1(C(=O)N2CC[C@](c3ccc(C(F)(C(F)(F)F)C(F)(F)F)cc3)(S(=O)(=O)c3ccc(F)cc3)C2)CCS(=O)(=O)CC1	–	> 50	10	–	> 40	> 40	> 7.5	> 7.5
COC1(C(=O)N2CC[C@](c3ccc(C(F)(C(F)(F)F)C(F)(F)F)cc3)(S(=O)(=O)c3ccc(F)cc3)C2)CCS(=O)(=O)CC1	–	> 50	3	–	> 40	> 40	> 7.5	> 7.5
O=C(O)C12CCC(C(=O)N3CC[C@](c4ccc(C(F)(C(F)(F)F)C(F)(F)F)cc4)(S(=O)(=O)c4ccc(F)cc4)C3)(CC1)C2	–	–	–	–	> 40	> 40	> 7.5	> 7.5
O=C(N1CC[C@](c2ccc(C(F)(C(F)(F)F)C(F)(F)F)cc2)(S(=O)(=O)c2ccc(F)cc2)C1)C12CCC(C(=O)O)(CC1)OC2	–	> 50	5	–	> 40	> 40	> 7.5	> 7.5
